# Measured values as given in patent EP1112066B1, “USE OF METHOXYMORPHOLINO DOXORUBICIN FOR THE TREATMENT OF A LIVER TUMOR” (Pharmacia Italia S.p.A., priority 1998, dated 2000).
# Counter-ions that a name gives are not always drawn. Like-named read-outs stand apart in the source and are kept apart here.
# Columns and labels:
# [1] = system: metastatic colorectal cancer; conditions: cited from earlier work
# liver metastases [2] = conditions: hepatic arterial infusion; no substantial effect on survival; cited from earlier work
# [3] = Phase I dose-finding study of MMDX via the hepatic artery (IHA): toxicity; assay type: in vivo, human; conditions: for thrombocytopenia (grade): considered tumor related (HCC patient); for anemia (max. grade): one patient
# Procedure: (§1) A single arm, multicentre, dose-finding Phase I study of MMDX (PNU 152243) administered as a brief infusion of 30 minutes every 4 weeks via the hepatic artery (IHA) to adult patients either with hepatic metastatic colorectal cancer who have progressed after receiving intravenous chemotherapy or intrahepatic 5-fluoruracil chemotherapy, or with previously untreated primary hepatocellular carcinoma or cholangiocarcinoma involving the liver was carried out. Their disease was confined to the liver, at the time of trial entry.
# The primary goal of this study was the determination of Maximal Tolerated Dose (MTD) and Dose-Limiting Toxicities (DLTs)of MMDX when administered via the hepatic artery.
# (§2) The starting dose was 100 mcg/m^2,corresponding to one third of the LD10 in rats.
# (§3) On a total of 23 registered patients, 18 received intra hepatic artery (IHA) administration of MMDX.
# (§4) Doses tested ranged from 100 mcg/m^2 to 800 mcg/m^2.
# (§5) Results are available on 13 patients: 3 patients (6 cycles) at 100 mcg/m^2, 3 patients (12 cycles) at 200mcg/m^2, 3 patients (4 cycles) at 400 mcg/m^2, 3 patients (10 cycles) at 600 mcg/m^2 and 1 patient (3 cycles) at 800 mcg/m^2.
# [4] = Cytotoxic activity in vitro in the presence of liver microsomes; assay type: cell-based; conditions: mouse, rat and human liver microsomes
# Excerpt: (§6) Strong evidence of antitumor efficacy in liver is also supported by preclinical data. […] This specific effect on liver metastases is probably due to metabolite(s) produced by liver enzymes. This hypothesis is reinforced by several results showing MMDX being activated in vitro by liver microsomes to a highly cytotoxic product. This metabolic conversion is believed to occur also in humans.
# liver metastases [5] = assay: Phase I and phase Ib studies by intravenous route: response in liver and toxicity; assay type: in vivo, human; conditions: i.v.
# Excerpt: The expectation that MMDX is effective in liver neoplasms comes from the findings of phase I and phase Ib studies conducted by intravenous route, where, out of 30 patients evaluable for response in liver, 5 experienced regressions of liver metastases. […] Tumor shrinkage occurred at doses of 1250 and 1500 mcg/m^2 i.v..
# HCC = assay: Phase I dose-finding study of MMDX via the hepatic artery (IHA): antitumor activity in liver; assay type: in vivo, human
# Procedure: as §1
# Antitumor activity was documented in this study.
# as §3, §4, §5
# [6] = system: panel of different tumor types; assay: Oral antitumor efficacy in a panel of tumor types; assay type: in vivo
# Excerpt: (§7) The high lipophilicity of the molecule, which confers to the compound the ability to reach high intracellular concentrations and is most likely one of the reasons of its efficacy on resistant models, makes it effective also after oral administration. The oral antitumor efficacy of MMDX has been examined in a panel of different tumor types with various schedules of administration. […] In these models, the effective oral doses of MMDX are 1.3-2 fold higher than the effective i.v. doses. […] This might be a reflection of a different behaviour of the drug, due to first pass effect to the liver.
# [7] = system: murine leukemias, solid murine and human tumor models; assay: In vivo antitumor potency, optimal i.v. dose
# [8] = system: tumor cells resistant to anthracyclines and presenting the mdr phenotype; assay: Activity in vitro and in vivo on resistant tumor cells
# Excerpt: MMDX is active in vitro and in vivo on tumor cells resistant to anthracyclines and presenting the mdr phenotype, this last mechanism being recognized to occur also in man.
# A well known pathway of the metabolic transformation of the antitumor anthracyclines in mammals is the side-chain carbonyl group reduction, giving the corresponding 13-dihydro derivative.
# [9] = system: liver metastases from M5076 murine fibrosarcoma; assay: Liver metastases from M5076 murine tumor; assay type: in vivo
# Excerpt: as §7, §6
# [10] = Lethal dose (LD10) in rats; assay type: in vivo
# Excerpt: as §2
# liver metastases [11] = assay: Phase II study by i.v. route in breast cancer patients with liver metastases; assay type: in vivo, human; conditions: 1500 mcg/m^2 i.v., six patients treated
# [12] = systemic, metastatic colorectal cancer
# [13] = after failure of 5-FU leucovorin
# [14] = 400 mcg/m^2 IHA, one patient (1 cycle)
# [15] = 600 mcg/m^2 IHA, 1 patient (2 cycles)
# [16] = 800 mcg/m^2 IHA, 1 patient (1 cycle)
molecule,measurement,setting,value
5-fluoruracil (5-FU) plus folinic acid,overall survival,[1]; [12],around 12 months
same,response rate,[1]; [12],20%
"O=c1[nH]cc(F)c(=O)[nH]1 [5-FU, 5-fluoruracil]",response rate,liver metastases [2],up to 50%
"O=c1[nH]c(=O)n([C@H]2C[C@H](O)[C@@H](CO)O2)cc1F [FUDR, 5-fluorodeoxyuridine]",response rate,liver metastases [2],up to 50%
CCc1c2c(nc3ccc(OC(=O)N4CCC(N5CCCCC5)CC4)cc13)-c1cc3c(c(=O)n1C2)COC(=O)[C@]3(O)CC [Irinotecan hydrochloride trihydrate],median survival time,[1]; [13],approximately 9 months
same,response rate,[1]; [13],15%
"COc1cccc2c1C(=O)c1c(O)c3c(c(O)c1C2=O)C[C@@](O)(C(=O)CO)C[C@@H]3O[C@H]1C[C@H](N2CCO[C@H](OC)C2)[C@H](O)[C@H](C)O1 [MMDX, Methoxymorpholino doxorubicin]",leucopenia (grade),"[3]; 100 mcg/m^2 IHA, 1 patient (1 cycle)",1
same,fatigue (grade),"[3]; 100 mcg/m^2 IHA, 2 patients (3 cycles)",1-2
same,vomiting,"[3]; 100 mcg/m^2 IHA, one out of three patients (1 cycle)",mild
same,leucopenia (grade),"[3]; 200 mcg/m^2 IHA, 1 patient (1 cycle)",1
same,fatigue (grade),"[3]; 200 mcg/m^2 IHA, 1 patient (2 cycles)",2
same,thrombocytopenia (grade),"[3]; 200 mcg/m^2 IHA, 1 patient (3 cycles)",1-2
same,"increase in transaminases (grade), attributable to the study drug","[3]; 200 mcg/m^2 IHA, 2/3 patients",1-2
same,nausea (grade),"[3]; 200 mcg/m^2 IHA, 2 patients (2 cycles)",2
same,vomiting (grade),"[3]; 200 mcg/m^2 IHA, 2 patients (3 cycles)",1-2
same,anemia (max. grade),[3]; 200 mcg/m^2 IHA,≤ 1
same,hyperglycemia (grade),"[3]; 200 mcg/m^2 IHA, two patients (one diabetic, persisting from baseline; one post prandial)",3
same,leucopenia (grade),"[3]; 400 mcg/m^2 IHA, 1 patient (1 cycle)",1
same,"increase in transaminases (grade), attributable to the study drug","[3]; 400 mcg/m^2 IHA, 2/3 patients",1-2
same,nausea (grade),"[3]; 400 mcg/m^2 IHA, 2 patients (2 cycles)",2-3
same,alopecia,[3]; [14],mild
same,local pain at porth-a-cath site,[3]; [14],Mild
same,vomiting (grade),[3]; [14],2
same,transaminase elevation (grade),"[3]; 400 mcg/m^2 IHA, third patient, probably due to the IHA technology applied",2-3
same,thrombocytopenia (grade),"[3]; 600 mcg/m^2 IHA, 1 patient (1 cycle)",1-2
same,alopecia,[3]; [15],mild
same,fatigue (grade),[3]; [15],2
same,"increase in transaminases (grade), attributable to the study drug","[3]; 600 mcg/m^2 IHA, 2 out of 3 patients",1-2
same,nausea (grade),"[3]; 600 mcg/m^2 IHA, 2 patients (2 cycles)",1-2
same,anemia (max. grade),[3]; 600 mcg/m^2 IHA,≤ 1
same,fatigue (grade),[3]; [16],1
same,fever (grade),[3]; [16],1
same,mucositis (grade),[3]; [16],1
same,nausea (grade),[3]; [16],1
same,anemia (max. grade),[3]; 800 mcg/m^2 IHA,≤ 1
same,transaminase elevation (grade),"[3]; 800 mcg/m^2 IHA, the one patient treated",3
same,time of maximum transaminases elevation,[3]; IHA,during the first week after treatment
same,most frequently observed adverse events attributable to the study drug,"[3]; IHA, 100-800 mcg/m^2","nausea, vomiting and fatigue"
same,other grade 3-4 non-hematological events,"[3]; IHA, 100-800 mcg/m^2",No other grade 3-4 events
same,AGC,"[3]; IHA, all doses reported",always normal
same,bilirubinemia increases (grade),"[3]; IHA, starting from 100 mcg/m^2, not considered due to the study drug",2
same,cytotoxic activity in the presence of liver microsomes,[4],increased
same,main toxicities,liver metastases [5]; phase I and Ib,"nausea and vomiting (requiring intravenous antiemetic treatment), myelosuppression and transient elevations in transaminases"
same,liver finding at autopsy,"liver metastases [5]; additional patient with colorectal cancer and multiple liver metastases at entry, after the first cycle",no evidence of liver metastases
same,number of patients with regressions of liver metastases,"liver metastases [5]; out of 30 patients evaluable for response in liver, shrinkage at 1250 and 1500 mcg/m^2",5
same,regression of liver lesions,"liver metastases [5]; two patients with colorectal cancer, after 3 cycles",< 50%
same,regression in liver lesions,"liver metastases [5]; two patients with renal cancer, after 3 cycles",greater than 50%
same,lipophilicity,Lipophilicity,high
same,"reduction of measurable liver disease (NMR, overall 17.75 cm^2 at entry)","HCC; 200 mcg/m^2 IHA, first HCC patient, after 2 IHA cycles",more than 86%
same,tumor response,"HCC; 200 mcg/m^2 IHA, first HCC patient, after 2 IHA cycles, confirmed after the fourth",Partial Response (PR)
same,tumor response,"HCC; 200 mcg/m^2 IHA, first HCC patient, after the sixth IHA cycle",Complete Response (CR)
same,number of objective tumor responses in liver,"HCC; 200 mcg/m^2 IHA, patients with HCC",Two
same,"decrease of the bigger lesion in diameter (6 cm at baseline, Ctscan)","HCC; 200 mcg/m^2 IHA, second HCC patient, after the third IHA cycle",50%
same,tumor response,"HCC; 800 mcg/m^2 IHA, third HCC patient, after 3 cycles",minor response
same,oral antitumor activity compared to intravenous (i.v.) administration,"[6]; all animal models examined, various schedules",comparable
same,"effective oral doses, fold higher than the effective i.v. doses",[6]; animal models,1.3-2 fold
same,antitumor activity,"[7]; after i.p., i.v. or oral administration, murine leukemias, solid murine and human tumor models",good antitumor activity
same,"optimal i.v. dose, fold less than that of doxorubicin","[7]; in vivo, i.v.",at least 80 fold
same,activity on tumor cells resistant to anthracyclines (mdr phenotype),[8]; in vitro and in vivo,active
same,cross-resistance,"[8]; tumor cells resistant to L-PAM or cDDP, or to Topoisomerase II inhibitors (at-mdr)",No cross-resistance
same,efficacy on the liver metastases versus the solid primary,"[9]; administered orally, same M5076 model",more effective on the liver metastases than on the solid primary
same,efficacy relative to the oral formulation,[9]; injectable formulation,less effective
same,survival time (best result),"[9]; oral formulation, daily for 5 days",doubling of survival time
same,one third of the LD10 in rats,[10],100 mcg/m^2
same,number of complete responses in liver lesions,liver metastases [11],1
same,number of minor responses in liver lesions,liver metastases [11],1
same,number of partial responses in liver lesions,liver metastases [11]; one not confirmed four weeks apart,3
COc1cccc2c1C(=O)c1c(O)c3c(c(O)c1C2=O)CC(O)(C(O)CO)CC3OC1CC(N2CCOC(OC)C2)C(O)C(C)O1 (stereo not drawn) [reduced derivative of MMDX],"active doses, fold higher as compared to the parent drug","[8]; doxorubicin-resistant models, in vitro and in vivo",10 fold
same,activity against doxorubicin-resistant models,[8]; in vitro and in vivo,maintains activity
